These results are taken from patent US9487479B2, “Small molecule inhibitors of N-terminus activation of the androgen receptor” (The University of British Columbia, priority 2008, dated 2016).

One test addresses T1, androgen receptor (AR) (Homo sapiens, UniProt P10275, T878A).
T1 construct: endogenous in cells; host or cells: LNCaP human prostate cancer cells
T1 sequence (P10275 1-920 T878A): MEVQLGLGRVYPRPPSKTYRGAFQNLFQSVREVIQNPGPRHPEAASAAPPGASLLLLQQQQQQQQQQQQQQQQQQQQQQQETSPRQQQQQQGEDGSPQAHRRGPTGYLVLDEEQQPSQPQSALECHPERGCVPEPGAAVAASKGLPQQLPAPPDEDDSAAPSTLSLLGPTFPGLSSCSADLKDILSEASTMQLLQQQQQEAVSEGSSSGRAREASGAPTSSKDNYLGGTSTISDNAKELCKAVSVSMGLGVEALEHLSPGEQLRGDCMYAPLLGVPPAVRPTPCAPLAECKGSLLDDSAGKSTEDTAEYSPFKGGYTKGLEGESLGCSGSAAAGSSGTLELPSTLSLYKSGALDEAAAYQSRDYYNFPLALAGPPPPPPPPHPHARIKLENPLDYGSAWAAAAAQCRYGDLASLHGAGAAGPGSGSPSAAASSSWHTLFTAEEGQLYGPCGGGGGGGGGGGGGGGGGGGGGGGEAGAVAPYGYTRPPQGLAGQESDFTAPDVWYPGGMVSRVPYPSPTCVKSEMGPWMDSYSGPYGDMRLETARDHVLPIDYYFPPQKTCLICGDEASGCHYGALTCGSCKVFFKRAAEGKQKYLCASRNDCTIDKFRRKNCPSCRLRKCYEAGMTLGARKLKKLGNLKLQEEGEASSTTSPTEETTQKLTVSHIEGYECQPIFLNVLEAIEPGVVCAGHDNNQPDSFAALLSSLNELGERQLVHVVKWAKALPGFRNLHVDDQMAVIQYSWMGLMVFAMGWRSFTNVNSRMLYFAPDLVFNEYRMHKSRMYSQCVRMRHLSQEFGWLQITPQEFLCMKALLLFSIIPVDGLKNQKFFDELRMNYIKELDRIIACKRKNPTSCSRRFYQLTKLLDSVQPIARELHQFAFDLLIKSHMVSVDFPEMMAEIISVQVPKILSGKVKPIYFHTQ
The experiment in a line: PSA (6.1 kb)-luciferase reporter assay in LNCaP cells. The test is classed as cell-based. The note with it: 5 μg/ml. The method, then:
(§1) White bars represent no steroid (ethanol control). Wherein glucocorticoid receptor (GR) and progesterone receptor (PR).
The cells were harvested 24 hours later and analyzed for luciferase activity. The data is normalized to protein that was measured using Bradford assay.
Sequence similarities of amino acids in the AR with related human steroid receptors (glucocorticoid receptor (GR) and progesterone receptor (PR)) are significant in some domains such as the DNA-binding-domain (DBD). Although the AR-NTD shares less than 15% homology with the PR and GR, these receptors do interact with some of the same proteins such as SRC-1 (steroid receptor coactivator-1). […] Cells were co-transfected with expression plasmids for full-length hGR and PRβ and the relative reporter (i.e., pGR-Luc or PRE-E1b-Luc reporters). Cells were then treated with ethanol vehicle, dexamethasone (GR), 4-pregnene-3,20 dione (progesterone) (PR) followed by measurement of luciferase activity.
Activation of the endogenous AR was measured in LNCaP human prostate cancer cells by measuring an androgen-responsive reporter containing androgen response elements (AREs). The PSA (6.1 kb)-luciferase reporter gene construct contains several well-characterized AREs and is induced by androgen.
On the technique in general: A reporter such as luciferase makes a cellular process visible.

For test [1], the target named is T2, glucocorticoid receptor (GR) (Homo sapiens, UniProt P04150).
T2 construct: Cells were co-transfected with expression plasmids for full-length hGR and PRβ; expressed in transfected cells; host or cells: LNCaP cells
T2 sequence (P04150 1-777): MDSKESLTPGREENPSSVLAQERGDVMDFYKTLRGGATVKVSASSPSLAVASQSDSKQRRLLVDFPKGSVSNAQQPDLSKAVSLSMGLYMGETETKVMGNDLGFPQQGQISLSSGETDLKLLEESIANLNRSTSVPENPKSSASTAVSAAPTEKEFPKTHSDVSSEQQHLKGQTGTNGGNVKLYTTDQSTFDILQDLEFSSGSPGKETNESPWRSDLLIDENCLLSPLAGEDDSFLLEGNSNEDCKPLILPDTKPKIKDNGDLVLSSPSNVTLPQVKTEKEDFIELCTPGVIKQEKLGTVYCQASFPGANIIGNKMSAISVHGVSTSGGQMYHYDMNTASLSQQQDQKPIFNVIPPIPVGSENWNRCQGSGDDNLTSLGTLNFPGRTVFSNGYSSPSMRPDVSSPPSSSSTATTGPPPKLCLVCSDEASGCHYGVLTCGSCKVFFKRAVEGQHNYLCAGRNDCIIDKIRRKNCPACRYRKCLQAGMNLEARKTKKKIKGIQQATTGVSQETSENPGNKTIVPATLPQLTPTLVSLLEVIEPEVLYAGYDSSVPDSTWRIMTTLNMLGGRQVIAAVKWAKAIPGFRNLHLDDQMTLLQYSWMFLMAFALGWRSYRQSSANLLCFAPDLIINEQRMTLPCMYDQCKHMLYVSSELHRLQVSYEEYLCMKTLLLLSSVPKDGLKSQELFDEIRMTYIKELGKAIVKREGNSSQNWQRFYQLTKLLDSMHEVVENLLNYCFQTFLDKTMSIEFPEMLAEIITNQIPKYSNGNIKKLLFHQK
The test can be described thus: GRE-luciferase reporter assay in LNCaP cells transfected with hGR. The test is classed as cell-based. The note with it: 5 μg/ml, dexamethasone 10 nM, 24 h.
From the text: as §1
Sequence similarities of amino acids in the AR with related human steroid receptors (glucocorticoid receptor (GR) and progesterone receptor (PR)) are significant in some domains such as the DNA-binding-domain (DBD). Although the AR-NTD shares less than 15% homology with the PR and GR, these receptors do interact with some of the same proteins such as SRC-1 (steroid receptor coactivator-1). Therefore, reporter gene assays were used to determine if candidate compounds that block AR activity have any effect on GR and PR transcriptional activity. Cells were co-transfected with expression plasmids for full-length hGR and PRβ and the relative reporter (i.e., pGR-Luc or PRE-E1b-Luc reporters). Cells were then treated with ethanol vehicle, dexamethasone (GR), 4-pregnene-3,20 dione (progesterone) (PR) followed by measurement of luciferase activity.

In another test the test system is LNCaP cells. The test can be described thus: Androgen-dependent proliferation of LNCaP cells (BrdU incorporation). The settings on record: 5 μg/ml, 1 hr before R1881 0.1 nM, 3 days. The test is classed as cell-based, human. Here is the method: BrdU incorporation was measured 3 days later to indicate changes in proliferation in response to androgen (see FIG. 3B).

For the compound `CCC(=O)N[C@H](C[C@H](C)C(Cl)(Cl)Cl)C(=O)N1C(=O)C=C(OC)[C@@H]1C[C@H](C)C(Cl)Cl` [CB3.1, Sintokamide A], the “inhibition of R1881 induction of PSA (6.1)-luciferase” value on androgen receptor (AR) (1 hour pretreatment, R1881 1 nM, 24 hours) is given as “inhibition”. On androgen receptor (AR) (steroid 10 nM, 24 h), the “AR activity measured with the PSA (6.1) luciferase reporter” value was “strongly inhibited”. Also, in test [1], the “GRE-luciferase activity in response to ligand” value was “did not inhibit”. In the test on LNCaP cells, the “androgen-induced proliferation (BrdU incorporation)” value is on record as “reduced proliferation”.
